Among the data in patent US8802673B2, “Heterocyclic amine derivatives” (Hoffmann-La Roche Inc, priority 2011, dated 2014) are Ki values, retold here.

SMILES strings stand for the structures.

mouse TAAR1, sequence (Q923Y8 whole entry): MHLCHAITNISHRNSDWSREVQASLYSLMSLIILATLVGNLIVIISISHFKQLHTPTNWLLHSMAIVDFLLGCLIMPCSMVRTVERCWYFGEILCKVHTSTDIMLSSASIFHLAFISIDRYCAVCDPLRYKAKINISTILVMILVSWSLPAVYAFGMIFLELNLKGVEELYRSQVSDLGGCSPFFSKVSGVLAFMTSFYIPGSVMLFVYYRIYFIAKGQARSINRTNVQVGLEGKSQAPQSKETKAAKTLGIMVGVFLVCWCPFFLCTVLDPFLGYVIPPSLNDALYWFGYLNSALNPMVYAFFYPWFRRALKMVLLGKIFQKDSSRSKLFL
rat TAAR1, sequence (Q923Y9 whole entry): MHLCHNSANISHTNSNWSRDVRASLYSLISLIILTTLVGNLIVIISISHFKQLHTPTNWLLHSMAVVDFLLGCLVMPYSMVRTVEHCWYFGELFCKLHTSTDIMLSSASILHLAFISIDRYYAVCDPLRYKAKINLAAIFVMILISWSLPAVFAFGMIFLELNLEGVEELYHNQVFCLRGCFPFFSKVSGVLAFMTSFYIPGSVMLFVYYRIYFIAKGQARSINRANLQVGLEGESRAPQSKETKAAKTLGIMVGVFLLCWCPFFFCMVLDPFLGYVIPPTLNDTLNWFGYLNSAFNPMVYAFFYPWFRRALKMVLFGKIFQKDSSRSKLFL

For the first assay, the target named is rat TAAR1 (Rattus norvegicus (Rat), UniProt Q923Y9). As to the kind of experiment: Radioligand binding assay on rat TAAR1. The settings on record: rat TAAR1 (second value of the cell), HEK-293 membranes; read-out: Ki (μM) mouse/rat. In outline:
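Membranes from HEK293 cells stably expressing rat TAAR1 were used, with radioligand Kd determined by saturation for each batch. Compounds (10 pM to 10 μM, in duplicate) were incubated for 1 h at 4 °C. Bound radioactivity was collected by filtration onto PEI-soaked GF/C filters and counted by scintillation.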
As for `Clc1cccc2ccc(Nc3ccc([C@H]4CNCCO4)cc3)nc12` [Example 52, (S)-8-Chloro-N-(4-(morpholin-2-yl)phenyl)quinolin-2-amine], the Ki is 0.0084 µM.

For `Brc1cccc2nc(Nc3ccc([C@H]4CNCCO4)cc3)ccc12` [Example 53, (S)-5-Bromo-N-(4-(morpholin-2-yl)phenyl)quinolin-2-amine], the Ki was determined as 0.0045 µM.

Take `Clc1cc(Nc2ccc([C@H]3CNCCO3)cc2)nc2ccccc12` [Example 54, (S)-4-Chloro-N-(4-(morpholin-2-yl)phenyl)quinolin-2-amine]: the Ki was 0.0138 µM.

In the case of `Fc1ncccc1Nc1ccc([C@H]2CNCCO2)cc1` [Example 55, (2-Fluoro-pyridin-3-yl)-((S)-4-morpholin-2-yl-phenyl)-amine], the Ki is 1.98 µM.

As for `Cc1cc(Br)cnc1Nc1ccc([C@H]2CNCCO2)cc1` [Example 56, (S)-5-Bromo-3-methyl-N-(4-(morpholin-2-yl)phenyl)pyridin-2-amine], the Ki was found to be 0.211 µM.

In the case of `Fc1cc(Br)cnc1Nc1ccc([C@H]2CNCCO2)cc1` [Example 57, (S)-5-Bromo-3-fluoro-N-(4-(morpholin-2-yl)phenyl)pyridin-2-amine], the Ki came out at 0.0866 µM.

As for `Clc1cnc(Nc2ccc([C@H]3CNCCO3)cc2)c(Cl)c1` [Example 58, (S)-3,5-Dichloro-N-(4-(morpholin-2-yl)phenyl)pyridin-2-amine], the Ki was found to be 0.584 µM.

On to `Fc1cc(Cl)ccc1Nc1ccc([C@H]2CNCCO2)cc1` [Example 59, (S)-4-Chloro-2-fluoro-N-(4-(morpholin-2-yl)phenyl)aniline], for which the Ki is 0.207 µM.

Turning to `CN(c1ccc(Cl)cc1)c1ccc([C@H]2CNCCO2)cc1` [Example 60, (4-Chloro-phenyl)-methyl-((S)-4-morpholin-2-yl-phenyl)-amine], the Ki is 0.758 µM.

Turning to `Brc1cnc(Nc2ccc([C@H]3CNCCO3)cc2)c(Br)c1` [Example 61, (S)-3,5-Dibromo-N-(4-(morpholin-2-yl)phenyl)pyridin-2-amine], the Ki was 0.502 µM.

For the compound `Cc1cc(Nc2ccc([C@H]3CNCCO3)cc2)ncc1Br` [Example 62, (S)-5-Bromo-4-methyl-N-(4-(morpholin-2-yl)phenyl)pyridin-2-amine], the Ki came out at 0.0094 µM.

For the compound `Clc1cc(Nc2ccc([C@H]3CNCCO3)cc2)c(Cl)cn1` [Example 63, (S)-2,5-Dichloro-N-(4-(morpholin-2-yl)phenyl)pyridin-4-amine], the Ki is 1.49 µM.

In the case of `Cc1cnc(Nc2ccc([C@H]3CNCCO3)cc2)cc1Br` [Example 64, (S)-4-Bromo-5-methyl-N-(4-(morpholin-2-yl)phenyl)pyridin-2-amine], the Ki came to 0.101 µM.

With `c1cc([C@H]2CNCCO2)ccc1Nc1ccc2c(c1)OCO2` [Example 65, (S)—N-(4-(Morpholin-2-yl)phenyl)benzo[d][1,3]dioxol-5-amine], the Ki is 0.629 µM.

For the compound `Clc1ccc(Nc2ccc([C@@H]3CNCCO3)cc2)cn1` [Example 67, (R)-6-Chloro-N-(4-(morpholin-2-yl)phenyl)pyridin-3-amine], the Ki was 0.292 µM.

Take `CCc1cnc(Nc2ccc([C@@H]3CNCCO3)cc2)nc1` [Example 68, (R)-5-Ethyl-N-(4-(morpholin-2-yl)phenyl)pyrimidin-2-amine]: the Ki is 0.0751 µM.

Consider `Clc1ccc(Nc2ccc([C@@H]3CNCCO3)cc2)nc1` [Example 69, (R)-5-Chloro-N-(4-(morpholin-2-yl)phenyl)pyridin-2-amine], for which the Ki came to 0.0438 µM.

With `CCOc1cc(Nc2ccc([C@H]3CNCCO3)cc2)cnc1Cl` [Example 71, (S)-6-Chloro-5-ethoxy-N-(4-(morpholin-2-yl)phenyl)pyridin-3-amine], the Ki is 0.168 µM.

With `CCc1cnc(Nc2ccc([C@H]3CNCCO3)cc2)nc1C` [Example 72, (5-Ethyl-4-methyl-pyrimidin-2-yl)-((S)-4-morpholin-2-yl-phenyl)-amine], the Ki came out at 0.22 µM.

Another assay addresses mouse TAAR1 (Mus musculus (Mouse), UniProt Q923Y8). As to the kind of experiment: Radioligand binding assay on mouse TAAR1. The settings on record: mouse TAAR1 (first value of the cell), HEK-293 membranes; read-out: Ki (μM) mouse/rat. In outline: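 Membranes from HEK293 cells stably expressing mouse TAAR1, Kd of radioligand determined per batch by saturation. Compounds tested 10 pM to 10 μM in duplicate, incubated 1 h at 4 °C, then filtration over PEI-soaked GF/C filters and scintillation counting.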
For the compound `Clc1cccc2ccc(Nc3ccc([C@H]4CNCCO4)cc3)nc12` [Example 52, (S)-8-Chloro-N-(4-(morpholin-2-yl)phenyl)quinolin-2-amine], the Ki worked out at 0.0005 µM.

Regarding `Brc1cccc2nc(Nc3ccc([C@H]4CNCCO4)cc3)ccc12` [Example 53, (S)-5-Bromo-N-(4-(morpholin-2-yl)phenyl)quinolin-2-amine], the Ki was determined as 0.0012 µM.

On to `Clc1cc(Nc2ccc([C@H]3CNCCO3)cc2)nc2ccccc12` [Example 54, (S)-4-Chloro-N-(4-(morpholin-2-yl)phenyl)quinolin-2-amine], for which the Ki is 0.0008 µM.

With `Fc1ncccc1Nc1ccc([C@H]2CNCCO2)cc1` [Example 55, (2-Fluoro-pyridin-3-yl)-((S)-4-morpholin-2-yl-phenyl)-amine], the Ki was found to be 0.738 µM.

For the compound `Cc1cc(Br)cnc1Nc1ccc([C@H]2CNCCO2)cc1` [Example 56, (S)-5-Bromo-3-methyl-N-(4-(morpholin-2-yl)phenyl)pyridin-2-amine], the Ki amounted to 0.0372 µM.

Consider `Fc1cc(Br)cnc1Nc1ccc([C@H]2CNCCO2)cc1` [Example 57, (S)-5-Bromo-3-fluoro-N-(4-(morpholin-2-yl)phenyl)pyridin-2-amine], for which the Ki was found to be 0.0023 µM.

For the compound `Clc1cnc(Nc2ccc([C@H]3CNCCO3)cc2)c(Cl)c1` [Example 58, (S)-3,5-Dichloro-N-(4-(morpholin-2-yl)phenyl)pyridin-2-amine], the Ki worked out at 0.0704 µM.

For `Fc1cc(Cl)ccc1Nc1ccc([C@H]2CNCCO2)cc1` [Example 59, (S)-4-Chloro-2-fluoro-N-(4-(morpholin-2-yl)phenyl)aniline], the Ki stood at 0.0049 µM.

For the compound `CN(c1ccc(Cl)cc1)c1ccc([C@H]2CNCCO2)cc1` [Example 60, (4-Chloro-phenyl)-methyl-((S)-4-morpholin-2-yl-phenyl)-amine], the Ki turned out to be 0.0222 µM.

With `Brc1cnc(Nc2ccc([C@H]3CNCCO3)cc2)c(Br)c1` [Example 61, (S)-3,5-Dibromo-N-(4-(morpholin-2-yl)phenyl)pyridin-2-amine], the Ki turned out to be 0.0591 µM.

Regarding `Cc1cc(Nc2ccc([C@H]3CNCCO3)cc2)ncc1Br` [Example 62, (S)-5-Bromo-4-methyl-N-(4-(morpholin-2-yl)phenyl)pyridin-2-amine], the Ki was 0.0005 µM.

`Clc1cc(Nc2ccc([C@H]3CNCCO3)cc2)c(Cl)cn1` [Example 63, (S)-2,5-Dichloro-N-(4-(morpholin-2-yl)phenyl)pyridin-4-amine]: the Ki came to 0.373 µM.

On to `Cc1cnc(Nc2ccc([C@H]3CNCCO3)cc2)cc1Br` [Example 64, (S)-4-Bromo-5-methyl-N-(4-(morpholin-2-yl)phenyl)pyridin-2-amine], for which the Ki is 0.0027 µM.

With `c1cc([C@H]2CNCCO2)ccc1Nc1ccc2c(c1)OCO2` [Example 65, (S)—N-(4-(Morpholin-2-yl)phenyl)benzo[d][1,3]dioxol-5-amine], the Ki was determined as 0.0131 µM.

As for `Clc1ccc(Nc2ccc([C@@H]3CNCCO3)cc2)cn1` [Example 67, (R)-6-Chloro-N-(4-(morpholin-2-yl)phenyl)pyridin-3-amine], the Ki is 0.0074 µM.

`CCc1cnc(Nc2ccc([C@@H]3CNCCO3)cc2)nc1` [Example 68, (R)-5-Ethyl-N-(4-(morpholin-2-yl)phenyl)pyrimidin-2-amine]: the Ki is 0.0094 µM.

Regarding `Clc1ccc(Nc2ccc([C@@H]3CNCCO3)cc2)nc1` [Example 69, (R)-5-Chloro-N-(4-(morpholin-2-yl)phenyl)pyridin-2-amine], the Ki was 0.0014 µM.

As to `CCOc1cc(Nc2ccc([C@H]3CNCCO3)cc2)cnc1Cl` [Example 71, (S)-6-Chloro-5-ethoxy-N-(4-(morpholin-2-yl)phenyl)pyridin-3-amine], the Ki was found to be 0.0118 µM.

Take `CCc1cnc(Nc2ccc([C@H]3CNCCO3)cc2)nc1C` [Example 72, (5-Ethyl-4-methyl-pyrimidin-2-yl)-((S)-4-morpholin-2-yl-phenyl)-amine]: the Ki was found to be 0.0171 µM.
